We go through three molecules from patent US20040054010A1, “Endosulfan formulation and methods of use thereof” (priority 2000, published 2004).

In one series the test system is Heliothis virescens. The note with it: topical application in acetone; Walfenbarger and Guerra, 1972; cited from earlier work.
For series [1], the system named is Rats. As to conditions: ingestion, Goebel et al., 1982; cited from earlier work.
Another series concerns Helicoverpa zea. As to conditions: topical application in acetone; Walfenbarger and Guerra, 1972; cited from earlier work.
In series [2] the test system is Musca domestica (house fly). The note with it: topical application in acetone, cited from earlier work.
In the next series the test system is Mice. As to conditions: ingestion, Dorough et al., 1978; cited from earlier work.
Series [3] has as its system GABA-gated chloride channel. As to conditions: Abalis et al., 1985, 1986; Gant et al., 1987; cited from earlier work.
The subject of series [4] is Rats. In words: Acute toxicity after ingestion by rats. In kind it is in vivo. As to conditions: rats and mice (Table 1). An excerpt:
A comparison of the acute toxicity of the isomers and the metabolite endosulfan sulfate after ingestion by rats and mice is shown in Table 1. […] Most studies investigating the chronic toxicity of endosulfan in mammals have not differentiated between the isomers. An exception is the neurotoxic action of endosulfan that has been attributed to the alpha-isomer.

For series [5] the following is noted: Singh et al., 1991, cited from earlier work.

Structures can show the parent of a compound that is named as a salt. Where two headings read alike, the source gives them in different places.

Take `O=S1OC[C@@H]2[C@H](CO1)[C@@]1(Cl)C(Cl)=C(Cl)[C@]2(Cl)C1(Cl)Cl` (stereo partly drawn) [alpha-endosulfan]: the LD50 entry with Heliothis virescens is “high*”; with Rats [1], 76 mg/kg; in the series on Helicoverpa zea, 630 µg/g; in series [2] (Barnes and Ware, 1965), 5.5 µg/g; in series [2] (Lindquist and Dahm, 1957) it was 0.14 μg · fly^−1; in the series on Mice, 11 mg/kg. Besides, the “potency at inhibiting GABA-induced chloride flux relative to the beta-isomer” value in series [3] is reported as “much more potent”. Further, the “acute toxicity relative to the beta-isomer” value in the series on Rats [4] is “approximately four fold higher”.
As for `O=S1OC[C@@H]2[C@H](CO1)[C@]1(Cl)C(Cl)=C(Cl)[C@]2(Cl)C1(Cl)Cl` (stereo partly drawn) [beta-endosulfan], the LD50 in the series with Heliothis virescens was 4960 µg/g; in the series on Rats [1] it was 240 mg/kg; with Helicoverpa zea, 4140 µg/g; in series [2] (Barnes and Ware, 1965), 9.0 µg/g; in series [2] (Lindquist and Dahm, 1957), 0.19 μg · fly^−1; in the series on Mice, 36 mg/kg. Further, in series [5], the “susceptibility to photolysis relative to the alpha-isomer” value is given as “over twice as susceptible”. In addition, the “vulnerability to chemical hydrolysis relative to the alpha-isomer” value in series [5] (neutral and alkali pH) was “approximately 25%”.
On to `O=S1(=O)OCC2C(CO1)C1(Cl)C(Cl)=C(Cl)C2(Cl)C1(Cl)Cl` (stereo not shown) [endosulfan sulfate], for which the LD50 entry with Heliothis virescens is “high*”; in the series with Rats [1], 76 mg/kg; in the series with Helicoverpa zea it was 820 µg/g; in series [2] (Barnes and Ware, 1965), 9.5 µg/g; in the series on Mice, 8 mg/kg. In addition, the “acute toxicity relative to the beta-isomer” value in the series on Rats [4] is on record as “approximately four fold higher”.
